Assay results as given in US9200319B2, “Nucleotides and nucleosides and methods for their use in DNA sequencing” (Lasergen, Inc., priority 2008, dated 2015).
Like-named read-outs stand apart in the source and are kept apart here.

Biological target: T1, THERMINATOR™ DNA polymerase (Thermococcus sp., UniProt Q56366, A485L/D141A/E143A)
T1 construct: purchased New England Biolabs
Assay: biochemical
Design: species or system Thermococcus species 9° N-7
Conditions: concentration at which the compound incorporates on half the primer-template complexes, complement template base
Description: Natural and modified nucleotides were tested for incorporation efficiency using the “polymerase end point assay” (Wu et al., 2007, which is incorporated herein by reference). This assay examines incorporation efficiency on matched and mismatched template bases. Incorporation efficiency is measured by determining the concentration at which the compound incorporates on half the primer-template complexes (IC50). Titrations of increasing compound concentration were performed to generate curves from which the IC50 can be determined.
(§1) The sequence of the template DNA is selected depending on which compound will be tested. For example, the first interrogation base after the primer in the template sequence is the complement base of the compound when measuring incorporation efficiency, and one of three mismatched bases when measuring mismatch discrimination properties.
(§2) To the annealed reaction, a DNA polymerase (e.g., THERMINATOR™ DNA polymerase, 0.25 units per reaction, New England Biolabs), 1× Thermopol Buffer, and a known concentration of either natural or modified nucleotide are added to each 10 μL reaction and incubated at 75° C. for 10 minutes, cooled on ice, and quenched with 10 μL of stop solution (98% formamide: 10 mM Na2EDTA, pH=8.0, 25 mg/ml Blue Dextran). Stopped reactions are heated to 75° C. for 30 seconds to denature the DNA, and then placed on ice. The extension products are analyzed on a 10% Long Ranger (Lonza) polyacrylamide gel using an ABI model 377 DNA sequencer. Additional details are provided in Example 1, below.
Polymerase Assays. Natural and modified nucleotides were tested for incorporation efficiency using the “polymerase end point assay” (Wu et al., 2007, which is incorporated herein by reference). This assay examines incorporation efficiency on matched and mismatched template bases. Incorporation efficiency is measured by determining the concentration at which the compound incorporates on half the primer-template complexes (IC50). Titrations of increasing compound concentration were performed to generate curves from which the IC50 can be determined.
The assay is performed by first annealing 5 nM of BODIPY-FL labeled primer with 40 nM template DNA in 1× Thermopol Buffer (20 mM Tris-HCl, pH 8.8; 10 mM (NH4)2SO4; 10 mM KCl; 2 mM MgSO4; 0.1% Triton X-100, New England BioLabs).
as §1, with “The temperature cycle to complete primer annealing is 80° C. for 30 seconds, 57° C. for 30 seconds, then cooling to 4° C. The” for “The”
as §2, with “sequencer.” for “sequencer. Additional details are provided in Example 1, below.”

[1] = read-out: IC50 for incorporation

T1 sequence (Q56366 whole entry D141A/E143A/A485L): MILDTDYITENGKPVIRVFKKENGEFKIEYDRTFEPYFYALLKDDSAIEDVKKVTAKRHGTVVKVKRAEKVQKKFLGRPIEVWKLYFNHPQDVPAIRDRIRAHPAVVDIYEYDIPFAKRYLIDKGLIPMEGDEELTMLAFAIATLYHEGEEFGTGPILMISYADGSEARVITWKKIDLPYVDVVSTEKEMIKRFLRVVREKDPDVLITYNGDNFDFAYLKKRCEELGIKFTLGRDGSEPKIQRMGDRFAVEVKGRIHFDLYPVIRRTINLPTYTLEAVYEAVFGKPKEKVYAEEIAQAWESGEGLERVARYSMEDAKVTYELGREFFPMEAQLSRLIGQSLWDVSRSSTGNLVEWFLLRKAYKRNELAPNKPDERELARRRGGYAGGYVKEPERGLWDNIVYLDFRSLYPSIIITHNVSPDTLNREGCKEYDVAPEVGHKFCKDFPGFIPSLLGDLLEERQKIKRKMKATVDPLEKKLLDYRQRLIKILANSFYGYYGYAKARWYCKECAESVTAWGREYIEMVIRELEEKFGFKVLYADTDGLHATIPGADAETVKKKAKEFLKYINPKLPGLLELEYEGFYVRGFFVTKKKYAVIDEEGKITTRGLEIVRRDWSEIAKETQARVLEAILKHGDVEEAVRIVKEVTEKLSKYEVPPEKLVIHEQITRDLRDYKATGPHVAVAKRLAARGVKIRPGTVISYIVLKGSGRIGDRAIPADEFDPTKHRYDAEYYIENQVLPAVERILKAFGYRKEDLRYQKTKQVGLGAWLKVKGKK

| Compound | IC50 [1] [nM] | IC50 (IC50 for incorporation) [nM] |
| --- | --- | --- |
| 5-(α-isopropyl-2-nitrobenzyloxy)methyl-2′-dUTP-5-R6G [6p005] | 15 ± 1 | – |
| 5-(α-isopropyl-2-nitrobenzyloxy)methyl-2′-dUTP-6-FAM [6p094] | 8.1 ± 0.2 | – |
| 5-(α-isopropyl-2-nitrobenzyloxy)methyl-2′-dUTP-6-ROX [6p044] | 18 ± 1 | – |
| 6-ROX labeled 7-{(R)-1-[4-(3-amino-1-propynyl)-2-nitrophenyl]-2-methyl-propyloxy}methyl-7-deaza-2′-deoxyguanosine-5′-triphosphate [6p034] | 7.4 ± 0.1 | – |
| CC(Oc1nc(N)nc2c1ncn2[C@H]1C[C@H](O)[C@@H](COP(=O)(O)OP(=O)(O)OP(=O)(O)O)O1)c1ccccc1[N+](=O)[O-] (mixture of isomers) [2p143, O^6-(α-methyl-2-nitrobenzyl)-2′-dGTP] | – | 10 |
| CC(Nc1ncnc2c1ncn2[C@H]1C[C@H](O)[C@@H](COP(=O)(O)OP(=O)(O)OP(=O)(O)O)O1)c1ccccc1[N+](=O)[O-] (mixture of isomers) [3p006, N^6-(α-methyl-2-nitrobenzyl)-2′-dATP] | – | 8.5 ± 1.8 |
| CC(C)(C)C(OCc1cn([C@H]2C[C@H](O)[C@@H](COP(=O)(O)OP(=O)(O)OP(=O)(O)O)O2)c(=O)[nH]c1=O)c1ccccc1[N+](=O)[O-] (single isomer, unassigned) [3p075, 5-[(R or S)-1-(2-nitrophenyl)-2,2-dimethyl-1-propyloxy]methyl-2′-deoxyuridine-5′-triphosphate] | – | 3 |
| CC(C)C(Nc1ncnc2c1ncn2[C@H]1C[C@H](O)[C@@H](COP(=O)(O)OP(=O)(O)OP(=O)(O)O)O1)c1ccccc1[N+](=O)[O-] (single isomer, unassigned) [6p063, N^6-(α-isopropyl-2-nitrobenzyl)-2′-dATP] | – | 12 ± 1 |
| Nc1nc(OCc2ccccc2[N+](=O)[O-])c2ncn([C@H]3C[C@H](O)[C@@H](COP(=O)(O)OP(=O)(O)OP(=O)(O)O)O3)c2n1 [2p108, O^6-(2-nitrobenzyl)-2′-dGTP] | – | 4 ± 0.7 |
| CC(C)[C@H](OCc1cn([C@H]2C[C@H](O)[C@@H](COP(=O)(O)OP(=O)(O)OP(=O)(O)O)O2)c(=O)[nH]c1=O)c1ccccc1[N+](=O)[O-] [3p063, 5-[(S)-1-(2-nitrophenyl)-2-methyl-propyloxy]methyl-2′-deoxyuridine-5′-triphosphate] | – | 2 |
| CC(C)[C@H](OCc1cn([C@H]2C[C@H](O)[C@@H](COP(=O)(O)OP(=O)(O)OP(=O)(O)O)O2)c(=O)nc1N)c1ccccc1[N+](=O)[O-] [3p065, 5-[(S)-1-(2-nitrophenyl)-2-methyl-propyloxy]methyl-2′-deoxycytidine-5′-triphosphate] | – | 1.1 ± 0.1 |
| Nc1ncnc2c1c(COCc1ccccc1[N+](=O)[O-])cn2[C@H]1C[C@H](O)[C@@H](COP(=O)(O)OP(=O)(O)OP(=O)(O)O)O1 [5p085, 7-(2-nitrobenzyloxy)methyl-7-deaza-2′-deoxyadenosine-5′-triphosphate] | – | 3.6 ± 0.3 |
| Nc1ccn([C@H]2C[C@H](O)[C@@H](COP(=O)(O)OP(=O)(O)OP(=O)(O)O)O2)c(=O)n1 [dCTP, reference compound] | 3 ± 0.6 | – |
| C^7-(α-isopropyl-2-nitrobenzyloxy)methyl-2′-dATP-6-CR110 [5p130-LP2] | 15 ± 3 | – |
